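Method: 48-hour compound exposure of cells in 96-well plates, five concentrations, linear interpolation of endpoints. TGI is the concentration that stops growth completely.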
Columns and labels:
Test in all cases: NCI-60 cell line screen, 48 h
LXFL 529 NSCLC = tested on: LXFL 529 NSCLC
XF 498 CNS = tested on: XF 498 CNS
DMS 114 small cell lung = tested on: DMS 114 small cell lung
KM20L2 colon = tested on: KM20L2 colon
DMS 273 small cell lung = tested on: DMS 273 small cell lung
RXF-631 renal = tested on: RXF-631 renal

`CN1NC(c2ccccc2)=C(C#N)C(=O)CC1c1ccc(Br)cc1` (stereo not drawn) was tested. Which TGI (LXFL 529 NSCLC) did it give?
Its TGI is over 100 µM.

And the TGI (XF 498 CNS)?
The TGI was 78.2 µM.

Which TGI (DMS 114 small cell lung) does the source give for `CC[n+]1c(/C=C/c2ccc(N(CCCl)CCCl)cc2)ccc2cc(I)ccc21` here?
The TGI was over 100 µM.

What about the TGI (KM20L2 colon) of the same compound?
The TGI was 1.88 µM.

And the TGI (LXFL 529 NSCLC)?
The TGI was 1.52 µM.

How did the TGI (DMS 114 small cell lung) turn out when `OC12c3ccccc3C1CCCCCC21OCCCO1` (stereo not drawn) was run?
Its TGI is over 100 µM.

What about the TGI (DMS 273 small cell lung) of the same compound?
The TGI was over 100 µM.

What about the TGI (KM20L2 colon) of the same compound?
Its TGI is over 100 µM.

What about the TGI (LXFL 529 NSCLC) of the same compound?
Its TGI is over 100 µM.

`C=CCn1c(=N)/c(=C(\N)O)s/c1=C1/SC(=S)N(c2ccc(C)cc2)C1=O` was tested. Which TGI (LXFL 529 NSCLC) did it give?
Its TGI is over 100 µM.

Which TGI (DMS 114 small cell lung) does the source give for `O=C(c1ccco1)N(C(=S)N1CCN(c2ccccn2)CC1)c1ccccc1` here?
The TGI was over 100 µM.

What about the TGI (DMS 273 small cell lung) of the same compound?
Its TGI is over 100 µM.

What about the TGI (KM20L2 colon) of the same compound?
Its TGI is over 100 µM.

And the TGI (LXFL 529 NSCLC)?
Its TGI is over 100 µM.

And the TGI (XF 498 CNS)?
Its TGI is over 100 µM.

How did the TGI (DMS 114 small cell lung) turn out when `O=C(O)c1ccc(Nc2nc3nn(Cc4ccccc4)cc3c(=O)s2)cc1` was run?
Its TGI is over 100 µM.

And the TGI (DMS 273 small cell lung)?
The TGI was over 100 µM.

What about the TGI (KM20L2 colon) of the same compound?
Its TGI is over 100 µM.

What about the TGI (LXFL 529 NSCLC) of the same compound?
The TGI was over 100 µM.

`CCCCCCCCCC(=O)NC(Cc1ccc(O)cc1)C(=O)NCCCNCCCCNCCCNC(=O)[C@@H](N)CCCN=C(N)N` (stereo partly drawn) was tested. Which TGI (DMS 114 small cell lung) did it give?
Its TGI is over 100 µM.

What about the TGI (DMS 273 small cell lung) of the same compound?
The TGI was 42.9 µM.

And the TGI (KM20L2 colon)?
The TGI was over 100 µM.

What about the TGI (LXFL 529 NSCLC) of the same compound?
The TGI was over 100 µM.

What about the TGI (XF 498 CNS) of the same compound?
Its TGI is over 100 µM.

For `OC12CCC3(O)c4ccccc4C3C1c1ccccc12` (stereo not drawn), which TGI (DMS 273 small cell lung) is on record?
The TGI was over 100 µM.

What about the TGI (KM20L2 colon) of the same compound?
Its TGI is over 100 µM.

And the TGI (LXFL 529 NSCLC)?
The TGI was over 100 µM.

And the TGI (XF 498 CNS)?
Its TGI is over 100 µM.

For `COc1ccc(/C(Cl)=C(\C=O)c2ccc(Cl)cc2)cc1OC`, which TGI (DMS 114 small cell lung) is on record?
The TGI was 59.5 µM.

And the TGI (DMS 273 small cell lung)?
The TGI was over 100 µM.

What about the TGI (KM20L2 colon) of the same compound?
The TGI was 31.9 µM.

What about the TGI (LXFL 529 NSCLC) of the same compound?
Its TGI is 37.4 µM.

And the TGI (RXF-631 renal)?
Its TGI is over 100 µM.
